Measured values published in patent publication US8618096B2, “Prodrug compositions and methods for using the same in treating cancer and malaria” (The Regents of the University of California, priority 2008, dated 2013).

Legend:
[1] = system: W2 strain P. falciparum parasites; experiment: Evaluation of drug release in cells: food vacuole phenotype in Giemsa-stained blood smears; type: cell-based, Plasmodium falciparum; settings: 24 hrs, ring stage W2 parasites
Experimental: Cmpd 72 is the prodrug form of a parasite cysteine protease inhibitor, specifically an inhibitor of the proteases falcipain-2 and falcipain-3 from the malaria parasite Plasmodium falciparum. […] Thus, observation of the food vacuole phenotype upon treatment of cultured P. falciparum parasites with the protease inhibitor prodrug would constitute positive evidence for release of the free drug inside the parasite.
Synchronized W2 strain P. falciparum parasites (ring stage) were grown as described herein and incubated in the presence of test and control compounds for 24 hrs. Next, a blood smear was made, fixed with methanol, and stained with Giemsa, as known in the art. Parasites were then imaged at 100× magnification to identify the presence or absence of the food vacuole phenotype.

[2] = system: 3D7 strain of P. falciparum; experiment: Antimalarial activity, parasite growth in human erythrocytes (YOYO-1 flow cytometry), 3D7 strain; type: cell-based; settings: Plasmodium falciparum, 3D7, Erythrocyte; 72 hr growth period, eight-point dose-response
Experimental: (§1) Cultures of 3D7 and W2 strains of P. falciparum parasites were grown in purified human erythrocytes and synchronous cultures were placed into 96-well plates containing test compounds. After a 72 hr growth period, cultures were fixed for 1 hr at room temperature in 1% paraformaldehyde and stained with 50 nM YOYO-1 for about 24 hr in the dark. Samples were analyzed on a Becton-Dickinson LSR2 fitted with a microplate reader. Uninfected erythrocytes were used to determine background autofluorescence. Parasite growth in each sample was determined relative to infected erythrocytes without test compound. “Eight-point dose-response curves were generated and EC50 values determined using GRAPHPAD PRISM® software”.

[3] = system: W2 strain of P. falciparum; experiment: Antimalarial activity, parasite growth in human erythrocytes (YOYO-1 flow cytometry), W2 strain; type: cell-based; settings: Plasmodium falciparum, W2, Erythrocyte; 72 hr growth period, eight-point dose-response
Experimental: as §1

[4] = Fe(II) activation and drug release in vitro (LC/MS); type: physicochemical
Experimental: In a series of experiments, the compound of Example 1 (0.03 mM) was incubated with various amounts (0-100 equivalents) of a ferrous iron salt (ferrous bromide) in a 1:1 solution of acetonitrile and an aqueous buffer at ambient temperature. Either of two buffers were used in these studies: pH 5.5 sodium acetate buffer intended to mimic a lysosomal environment or pH 7.4 phosphate buffered saline. At various time points, a 10 μl sample of the incubation mixture was removed and analyzed by liquid chromatography/mass spectroscopy (LC/MS) to identify the expected products of iron-promoted degradation and drug release. A Waters Alliance/ZQ micromass LC/MS system and a 15 min method employing gradient elution with acetonitrile-water mobile phase (containing 0.1% formic acid) was employed. In the absence of ferrous iron salts, the compound of example 1 was stable for 48 hrs, showing no detectable chemical degradation by LC/MS spectroscopy. In the presence of ferrous bromide however, the compound of example 1 was rapidly (less than 1 hour) converted into the expected ketone (analogous to G, FIG. 2) resulting from iron-promoted degradation of the trioxolane ring. Also observed was a signal attributable to the released drug species, 2,5-dichloroaniline.

Compound | food vacuole phenotype (falcipain inhibition) ([1]; 1.1 uM, FIG. 3C-E) | EC50 [2] | EC50 [3] | also measured
CC(C)(C[C@H](NC(=O)N1CCOCC1)C(=O)N[C@H](/C=C/S(=O)(=O)c1ccccc1)CCc1ccccc1)OC(=O)OCCC1(CCC(=O)NCCCN2CCCC2=O)OOC2(O1)C1CC3CC(C1)CC2C3 (stereo partly drawn) [Cmpd 72] | does produce the falcipain-inhibited phenotype | – | – | –
O=C(CCC1(CCOC(=O)N2CCN(c3ccccc3)CC2)OOC2(O1)C1CC3CC(C1)CC2C3)NCCN1CCOCC1 (stereo not drawn) [Cmpd 45, 2-(5,5-spiroadamantyl-3-(3-(2-morpholinoethylamino)-3-oxopropyl)-1,2,4-trioxolan-3-yl)ethyl 4-phenylpiperazine-1-carboxylate] | – | 9 nM | 4.9 nM | –
CC(C)C[C@H](NC(=O)[C@H]1O[C@@H]1C(=O)O)C(=O)NCCCCN=C(N)N [E64, reference compound] | – | – | – | food vacuole phenotype (falcipain inhibition) ([1]; 3.3 uM, FIG. 3B): swollen, dark-staining food vacuole
CN(Cc1ccccc1)C(=O)OCCC1(CCC(=O)NCCN2CCOCC2)OOC2(O1)C1CC3CC(C1)CC2C3 (stereo not drawn) [Cmpd 47, 2-(5,5-spiroadamantyl-3-(3-(2-morpholinoethylamino)-3-oxopropyl)-1,2,4-trioxolan-3-yl)ethyl benzyl(methyl)carbamate] | – | 16 nM | 15 nM | –
O=C(CCC1(CCO)OOC2(O1)C1CC3CC(C1)CC2C3)NCCCN1CCCC1=O (stereo not drawn) [Cmpd 58, 3-(3-(2-hydroxyethyl)-5,5-spiroadamantyl-1,2,4-trioxolan-3-yl)-N-(3-(2-oxopyrrolidin-1-yl)propyl)propanamide] | does not produce the protease-inhibited phenotype | – | – | –
CC(C)(O)C[C@H](NC(=O)N1CCOCC1)C(=O)N[C@H](/C=C/S(=O)(=O)c1ccccc1)CCc1ccccc1 [N—((S)-4-hydroxy-4-methyl-1-oxo-1-((S,E)-5-phenyl-1-(phenylsulfonyl)pent-1-en-3-ylamino)pentan-2-yl)morpholine-4-carboxamide, reference compound] | swollen, dark-staining food vacuole | – | – | –
O=C(CCC1(CCOC(=O)N(CCCNc2ccnc3cc(Cl)ccc23)Cc2ccco2)OOC2(O1)C1CC3CC(C1)CC2C3)NCCN1CCOCC1 (stereo not drawn) [Cmpd 48, 2-(5,5-spiroadamantyl-3-(3-(2-morpholinoethylamino)-3-oxopropyl)-1,2,4-trioxolan-3-yl)ethyl 3-(7-chloroquinolin-4-ylamino)propyl(furan-2-ylmethyl)carbamate] | – | 38 nM | 62 nM | –
O=C(CCC1(CCOC(=O)Nc2cc(Cl)ccc2Cl)OOC2(O1)C1CC3CC(C1)CC2C3)NCCN1CCOCC1 (stereo not drawn) [Cmpd 40, 2-(5,5-spiroadamantyl-3-(3-(2-morpholinoethylamino)-3-oxopropyl)-1,2,4-trioxolan-3-yl)ethyl-2,5-dichlorophenylcarbamate] | – | 16 nM | 24 nM | time of conversion into the expected ketone (iron-promoted degradation of the trioxolane ring) ([4]; 0.03 mM, in the presence of ferrous bromide, 1:1 acetonitrile and aqueous buffer, ambient temperature): less than 1 hour; stability in the absence of ferrous iron salts (no detectable chemical degradation by LC/MS) ([4]; 48 h, 0.03 mM): ≥ 48 h; release of drug species 2,5-dichloroaniline ([4]; in the presence of ferrous bromide, during the course of the experiment, LC/MS): the quantity of 2,5-dichloroaniline increased
